Results: paper PMC10779222, “Copper(II) Complexes with 1-(Isoquinolin-3-yl)heteroalkyl-2-ones: Synthesis, Structure and Evaluation of Anticancer, Antimicrobial and Antioxidant Potential” (International Journal of Molecular Sciences, 2023)
Values after ≈ are worked out from the molar mass of the structure shown. Values joined by “and” are separate entries in the source; they are usually repeats but may differ in a detail not shown here. Equal entries are not always repeated.

Legend:
[1] = test system: A375 (melanoma); assay: MTT cytotoxicity assay on A375 cells; type: cell-based, human; conditions: Homo sapiens, A-375, 24 h incubation, read-out: IC50 ± SD, A375
Method: (§1) Cytotoxic activity of the investigated compounds was evaluated against T98G (glioblastoma), HepG2 (hepatoma), LS-180 (colon cancer) and A375 (melanoma) cell lines. Human normal skin fibroblasts, CCD-1059Sk (CRL-2072), were used as reference (non-cancerous) cells. All of the cell lines were obtained from American Type Culture Collection (ATCC; Manassas, VA, USA). A375, T98G and CCD-1059Sk cells were cultured in Dulbecco’s Modified Eagle’s Medium (DMEM) (Sigma Aldrich, St. Louis, MO, USA) supplemented with 10% FBS, penicillin (100 U/mL) and streptomycin (100 μg/mL). LS-180 and HepG2 cells were cultured in Eagle’s Minimum Essential Medium supplemented with 10% FBS, penicillin (100 U/mL) and streptomycin (100 μg/mL). All of the cells were maintained at 37 °C in a humidified atmosphere of 5% CO2. The compounds were dissolved in DMSO in order to obtain stock solutions. At the day of the experiment, the suspension of cells (1 × 10^5 cells/mL) was distributed onto 96-well plates at a volume of 100 μL/well. After attachment, the cells were treated with the increased concentrations of the tested compounds in medium containing 2% FBS and incubated for 24 h. Then, the medium was removed from wells, and cells were rinsed with PBS. Afterwards, 15 μL of MTT working solution (5 mg/mL in PBS) was added to each well, and the plates were incubated for 3 h. Subsequently, 100 μL of 10% SDS solution was added to each well in order to dissolve the precipitated formazan crystals. After overnight incubation at 37 °C, the absorbance of the obtained solution was measured at λ = 570 nm using a microplate reader (Epoch, BioTek Instruments, Inc., Winooski, VT, USA). At least two independent experiments were performed in triplicate. […] IC50 values of the investigated derivatives and positive control (etoposide) were calculated using the IC50 online calculator [101].

[2] = test system: CCD-1059Sk (human normal skin fibroblasts); assay: MTT cytotoxicity assay on non-cancerous fibroblasts; type: cell-based; conditions: Homo sapiens, CCD-1059Sk, 24 h incubation, non-cancerous cells, read-out: IC50 ± SD, CCD-1059-Sk
Method: as §1

[3] = test system: LS-180 (colon cancer); assay: MTT cytotoxicity assay on LS-180 cells; type: cell-based, human; conditions: Homo sapiens, LS180, 24 h incubation, read-out: IC50 ± SD, LS180
Method: as §1

[4] = test system: HepG2 (hepatoma); assay: MTT cytotoxicity assay on HepG2 cells; type: cell-based, human; conditions: Homo sapiens, HepG2; MTT, 24 h incubation; read-out: IC50 ± SD, HepG2
Method: as §1

[5] = test system: T98G (glioblastoma); assay: MTT cytotoxicity assay on T98G cells; type: cell-based; conditions: Homo sapiens, T98G; MTT, 24 h incubation; read-out: IC50 ± SD, T98G
Method: as §1

[6] = ABTS radical scavenging assay; conditions: ±SD; 10 min, 30 °C
Method: The ABTS radical scavenging assay of samples (ligands or complexes) was performed with ascorbic acid as a positive control. Briefly, 30 μL of different concentrations of the samples, dissolved in DMSO, was mixed with 170 μL of ABTS solution (2 mM ABTS diammonium salt, 3.5 mM potassium persulfate) and completed with water to a final volume of 300 μL. ABTS solution with DMSO was used as a control. […] ABTS inhibition was calculated according to the following equation:ABTS Inhibition (%) = [(Acontrol − Asample)/Acontrol] × 100% The radical scavenging activity of the samples was shown as the IC50 value (the concentration of the analyzed samples that caused a decrease in the non-reduced form of the ABTS radical by 50%).

[7] = test system: A375, HepG2, LS-180, T98G and CCD-1059Sk cell lines; assay: MTT cytotoxicity assay, summary statements over several cell lines; type: cell-based; conditions: Homo sapiens; all cell lines (A375, HepG2, LS-180, T98G, CCD-1059-Sk)
Method: as §1

[8] = test system: Candida glabrata ATCC 90030; assay: Two-fold microdilution broth method, MIC; type: cell-based; conditions: Nakaseomyces glabratus, ATCC90030; 35 °C, 24 h
Description: (§2) Antibacterial and antifungal activities of the free ligands L2, L3 and L4 and the corresponding copper(II) complexes C2, C3 and C4 were screened using the two-fold microdilution broth method. Minimal inhibitory concentrations (MICs) of tested compounds for the panel of reference Gram-positive bacteria, including Staphylococcus aureus ATCC 25923, Staphylococcus aureus ATCC BAA-1707, Staphylococcus epidermidis ATCC 12228, Micrococcus luteus ATCC 10240 and Bacillus cereus ATCC 10876; Gram-negative bacteria, including Salmonella Typhimurium ATCC 14028, Escherichia coli ATCC 25922, Proteus mirabilis ATCC 12453, Klebsiella pneumoniae ATCC 13883 and Pseudomonas aeruginosa ATCC 9027; and yeasts, including Candida albicans ATCC 102231, Candida parapsilosis ATCC 22019 and Candida glabrata ATCC 90030 were determined. The procedure has been described in detail before. Briefly, the solutions of tested compounds dissolved in dimethylosulfoxide (DMSO) were suspended in Mueller–Hinton broth for bacteria or Mueller–Hinton broth with 2% glucose for fungi. Then, the series of two-fold dilutions were carried out in the sterile Nunc™ MicroWell™ 96-Well Microplates (ThermoFisher Scientific Inc.), obtaining concentrations from 1000 to 7.8 mg/L in the appropriate medium. Simultaneously, the inocula of 24 h cultures of microorganisms in sterile physiological saline (0.5 McFarland standard density) were prepared and added to each well, obtaining final density of 5 × 10^5 CFU/mL for bacteria and 5 × 10^4 CFU/mL for yeasts. Proper positive (inoculum without tested compound) and negative (compound without inoculum) controls were added in each microplate. After incubation (35 °C, 24 h), the growth of microorganisms was measured spectrophotometrically at 600 nm (BioTEK ELx808, Bio-Tek Instruments, Inc., Winooski, VT, USA). MICs were marked at the lowest concentration of the compound without the growth of bacteria or fungi.

[9] = test system: Candida parapsilosis ATCC 22019; assay: Two-fold microdilution broth method, MIC; type: cell-based; conditions: Lodderomyces parapsilosis, ATCC22019; 35 °C, 24 h
Description: as §2

[10] = test system: Candida albicans ATCC 102231; assay: Two-fold microdilution broth method, MIC; type: cell-based; conditions: Candida albicans, ATCC102231; 35 °C, 24 h
Description: as §2

[11] = test system: Candida; assay: Two-fold microdilution broth method, MIC, yeasts (summary); type: cell-based; conditions: range over the three yeast strains; read-out: MIC, anti-Candida activity
Description: Antibacterial and antifungal activities of the free ligands L2, L3 and L4 and the corresponding copper(II) complexes C2, C3 and C4 were screened using the two-fold microdilution broth method. Minimal inhibitory concentrations (MICs) of tested compounds for the panel of reference Gram-positive bacteria, including Staphylococcus aureus ATCC 25923, Staphylococcus aureus ATCC BAA-1707, Staphylococcus epidermidis ATCC 12228, Micrococcus luteus ATCC 10240 and Bacillus cereus ATCC 10876; Gram-negative bacteria, including Salmonella Typhimurium ATCC 14028, Escherichia coli ATCC 25922, Proteus mirabilis ATCC 12453, Klebsiella pneumoniae ATCC 13883 and Pseudomonas aeruginosa ATCC 9027; and yeasts, including Candida albicans ATCC 102231, Candida parapsilosis ATCC 22019 and Candida glabrata ATCC 90030 were determined. The procedure has been described in detail before. Briefly, the solutions of tested compounds dissolved in dimethylosulfoxide (DMSO) were suspended in Mueller–Hinton broth for bacteria or Mueller–Hinton broth with 2% glucose for fungi. […] After incubation (35 °C, 24 h), the growth of microorganisms was measured spectrophotometrically at 600 nm (BioTEK ELx808, Bio-Tek Instruments, Inc., Winooski, VT, USA). […]

Compound | IC50 [1] [µg/mL] | IC50 [2] [µg/mL] | IC50 [3] [µg/mL] | IC50 [4] [µg/mL] | IC50 [5] [µg/mL] | IC50 ABTS [6] | IC50 [7] [µg/mL] | MIC [8] [µg/mL] | MIC [9] [µg/mL] | MIC [10] [µg/mL] | melting point [°C] | MIC [11] [µg/mL]
COc1cc([C@@H]2c3cc4c(cc3[C@@H](O[C@@H]3O[C@@H]5CO[C@@H](C)O[C@H]5[C@H](O)[C@H]3O)[C@H]3COC(=O)[C@H]23)OCO4)cc(OC)c1O [Etoposide, etoposide, reference compound] | 10.2 ± 0.83 (≈ 17.3 µM) | 83.5 ± 3.19 (≈ 142 µM) | > 100 | 43.2 ± 2.75 (≈ 73.4 µM) | > 100 | – | – | – | – | – | – | –
O=C1CCN1c1cc2ccccc2cn1 [L1, 1-(isoquinolin-3-yl)azetidin-2-one] | > 200 | > 200 | > 200 | > 200 | > 200 | 183.21 ± 2.45 µg/mL (≈ 924 µM) | > 200 | – | – | – | – | –
O=C1NCCN1c1cc2ccccc2cn1 [L2, 1-(isoquinolin-3-yl)imidazolidin-2-one] | > 200 | > 200 | > 200 | > 200 | > 200 | 82.08 ± 2.77 µg/mL (≈ 385 µM) | > 200 | > 1000 | 1000 (≈ 4690 µM) | 500 (≈ 2340 µM) | 234 to 236 | –
CN1CCN(c2cc3ccccc3cn2)C1=O [L3, 1-(isoquinolin-3-yl)-3-methylimidazolidin-2-one] | > 200 | > 200 | > 200 | > 200 | > 200 | 96.76 µg/mL and 96.67 ± 2.84 µg/mL | > 200 | 250 (≈ 1100 µM) | 125 (≈ 550 µM) | 250 (≈ 1100 µM) | – | 125 to 250 (≈ 550 to 1100 µM)
CCN1CCN(c2cc3ccccc3cn2)C1=O [L4, 1-ethyl-3-(isoquinolin-3-yl)imidazolidin-2-one] | > 200 | > 200 | > 200 | > 200 | > 200 | 108.59 ± 1.51 µg/mL (≈ 450 µM) | > 200 | 1000 (≈ 4140 µM) | > 1000 | 1000 (≈ 4140 µM) | 151 to 153 | –
